Consider 7 compounds from US4254110A, “Pentofuranosyl anthracyclines, intermediates in and method for their preparation and compositions and use thereof” (Farmitalia Carlo Erba S.p.A., priority 1979, dated 1981).

≈ marks a conversion by molar mass, not a printed value. Counter-ions that a name gives are not always drawn. Like-named read-outs stand apart in the source and are kept apart here.

The test system of one series is P-388 leukemia. Kind of series: Antitumor activity against P-388 leukemia in mice. The following applies: for Toxic Deaths: macroscopic autoptic findings; for antitumor activity compared with daunorubicin and doxorubicin: at the tolerated doses (100~200 mg/Kg). The series is classed as in vivo. As to the method:
The antitumor activity of the same compounds was tested against P-388 leukemia in mice.
^(a) Mice were treated i.p. on day 1 after tumor cell inoculation.
^(b) Evaluated on the basis of macroscopic autoptic findings.
^(c) Injected as a water solution.
^(d) Injection as a 5% aqueous ethanol suspension.
^(e) Injected as a 1:9 Tween 80 : water suspension.

For another series, the system named is HeLa cells. In words: Cytotoxic activity against HeLa cells in vitro (effect on HeLa cells viability). The series is classed as cell-based. The following applies: Homo sapiens, read-out: ID50 (effect on HeLa cells viability in vitro). Here is the method:
The cytotoxic activity of several of the new compounds according to the invention were tested against HeLa cells in vitro (time of exposure to the compounds=24 hours) in comparison with daunorubicin and doxorubicin.

Where [1] appears, read: dose 4.4 mg/Kg i.p. on day 1, water solution.
Where [2] appears, read: dose 4.4 mg/Kg i.p. on day 1 after tumor cell inoculation, water solution.
[3] abbreviates: dose 6.6 mg/Kg i.p. on day 1, water solution.
[4] abbreviates: dose 6.6 mg/Kg i.p. on day 1 after tumor cell inoculation, water solution.
Where [5] appears, read: dose 50 mg/Kg i.p. on day 1, III-a as 5% aqueous ethanol suspension, others as 1:9 Tween 80:water suspension.
The mark [6] stands for this setting: dose 100 mg/Kg i.p. on day 1, III-a as 5% aqueous ethanol suspension, others as 1:9 Tween 80:water suspension.
Setting [7] is: dose 200 mg/Kg i.p. on day 1, III-a as 5% aqueous ethanol suspension, others as 1:9 Tween 80:water suspension.

For the compound `COc1cccc2c1C(=O)c1c(O)c3c(c(O)c1C2=O)C[C@@](O)(C(=O)CO)C[C@@H]3O[C@H]1C[C@H](N)[C@H](O)[C@H](C)O1` [Doxorubicin . HCl, doxorubicin, reference compound], the “Toxic Deaths” value with P-388 leukemia (setting [1]) is recorded as 0/17; in the series with P-388 leukemia (setting [3]), 0/17; in the series on P-388 leukemia (dose 10.0 mg/Kg i.p. on day 1, water solution) it was 4/18. Further, the T/C % in the series on P-388 leukemia (setting [2]) is reported as 195%; with P-388 leukemia (setting [4]), 206%; in the series on P-388 leukemia (dose 10.0 mg/Kg i.p. on day 1 after tumor cell inoculation, water solution), 244%. The IC50 with HeLa cells (HeLa, 24 h) came out at 10 ng/mL.

As for `COc1cccc2c1C(=O)c1c(O)c3c(c(O)c1C2=O)C[C@@](O)(C(C)=O)C[C@@H]3O[C@H]1C[C@H](N)[C@H](O)[C@H](C)O1` [Daunorubicin . HCl, daunorubicin, reference compound], the “Toxic Deaths” value in the series with P-388 leukemia (dose 2.9 mg/Kg i.p. on day 1, water solution) is reported as 0/37; in the series with P-388 leukemia (setting [1]), 0/38; with P-388 leukemia (setting [3]), 19/38. The T/C % in the series on P-388 leukemia (dose 2.9 mg/Kg i.p. on day 1 after tumor cell inoculation, water solution) is 169%; in the series with P-388 leukemia (setting [2]) it was 167%; in the series on P-388 leukemia (setting [4]), 157%. For the same compound, the IC50 in the series on HeLa cells (HeLa, 24 h) was determined as 7.4 ng/mL.

`COc1cccc2c1C(=O)c1c(O)c3c(c(O)c1C2=O)C[C@@](O)(C(C)=O)C[C@@H]3O[C@H]1CC(C=O)[C@H](C)O1` (single isomer, unassigned) [Compound III-b]: the results for the T/C % with P-388 leukemia (setting [5]), in the series with P-388 leukemia (setting [6]) and in the series on P-388 leukemia (setting [7]) were 110%, 110% and 125%, respectively. For the same compound, the “Toxic Deaths” value in the series with P-388 leukemia (setting [5]) is 0/10; in the series on P-388 leukemia (setting [6]), 0/10; in the series with P-388 leukemia (setting [7]) it was 0/9. The IC50 in the series on HeLa cells (HeLa cells, 24 hours exposure) amounted to 1.75 ng/mL (≈ 0.00343 µM).

Turning to `COc1cccc2c1C(=O)c1c(O)c3c(c(O)c1C2=O)C[C@@](O)(C(C)=O)C[C@@H]3O[C@H]1CC(CO)[C@H](C)O1` (stereo partly drawn) [Compound IV (R3 = H), 7-O-(2,3,5-trideoxy-3-C-hydroxymethyl-α-L-threopentofuranosyl)-daunomycinone], the “antitumor activity compared with daunorubicin and doxorubicin” value in the series on P-388 leukemia is “higher than or comparable to those of both daunorubicin and doxorubicin”. Besides, the figures for the T/C % with P-388 leukemia (setting [5]), in the series on P-388 leukemia (setting [6]) and in the series with P-388 leukemia (setting [7]) were 130%, 160% and 220%, respectively. For the same compound, the “Toxic Deaths” value was 0/7 with P-388 leukemia (setting [5]), 0/6 in the series on P-388 leukemia (setting [6]) and 0/5 in the series on P-388 leukemia (setting [7]). For the same compound, in the series on HeLa cells (HeLa cells, 24 hours exposure), the IC50 amounted to 1.6 ng/mL (≈ 0.00312 µM).

As to `COc1cccc2c1C(=O)c1c(O)c3c(c(O)c1C2=O)C[C@@](O)(C(=O)CO)C[C@@H]3O[C@H]1CC(C=O)[C@H](C)O1` (stereo partly drawn) [Compound III (R3 = OH), 7-O-(2,3,5-trideoxy-3-C-formyl-α-pentofuranosyl)-adriamycinone], the T/C % was 163% in the series on P-388 leukemia (setting [5]), 190% in the series on P-388 leukemia (setting [6]) and 231% with P-388 leukemia (setting [7]). Besides, the “Toxic Deaths” value with P-388 leukemia (setting [5]) is given as 0/9; in the series with P-388 leukemia (setting [6]) it was 0/9; with P-388 leukemia (setting [7]), 1/7. For the same compound, the IC50 in the series with HeLa cells (HeLa cells, 24 hours exposure) turned out to be 140 ng/mL (≈ 0.266 µM).

Turning to `COc1cccc2c1C(=O)c1c(O)c3c(c(O)c1C2=O)C[C@@](O)(C(C)=O)C[C@@H]3O[C@H]1CC(C=O)[C@H](C)O1` (stereo partly drawn) [Compound III-a, 7-O-(2,3,5-trideoxy-3-C-formyl-α-L-threopentofuranosyl)-daunomycinone], the “antitumor activity compared with daunorubicin and doxorubicin” value with P-388 leukemia was “higher than or comparable to those of both daunorubicin and doxorubicin”. Besides, the T/C % was determined as 168% in the series on P-388 leukemia (setting [5]), 163% in the series on P-388 leukemia (setting [6]) and 190% with P-388 leukemia (setting [7]). Besides, the “Toxic Deaths” value in the series on P-388 leukemia (setting [5]) is on record as 0/8; with P-388 leukemia (setting [6]) it was 0/5; in the series with P-388 leukemia (setting [7]) it was 2/5. In addition, the IC50 with HeLa cells (HeLa cells, 24 hours exposure) stood at 320 ng/mL (≈ 0.627 µM).

On to `COc1cccc2c1C(=O)c1c(O)c3c(c(O)c1C2=O)C[C@@](O)(C(=O)CO)C[C@@H]3O[C@H]1CC(C=O)[C@H](C)O1` (stereo partly drawn) [III (R3 =OH)], for which the “antitumor activity compared with daunorubicin and doxorubicin” value in the series on P-388 leukemia is “higher than or comparable to those of both daunorubicin and doxorubicin”.
